This experiment concerns the target T1, recombinant uPAR (Homo sapiens, UniProt Q03405).
T1 construct: purchased R&D systems
Briefly: Competitive ELISA uPAR binding assay (displacement of uPAR from immobilized urokinase). Conditions: for IC50 / Ki: ELISA assay, competition with urokinase for recombinant uPAR; for Ratio of IC50 (Compound)/IC50 6-ABT-1: relative to control 6-ABT-1. Here is the method: The affinity of derivatives are assayed using a competitive ELISA binding assay. The assay involves the immobilization of urokinase, a natural high affinity ligand for uPAR followed by the addition of a fixed concentration of recombinant uPAR protein and increasing concentrations of test compounds which competes with urokinase for binding to the uPA binding site of uPAR. Following several washing steps, the amount of uPAR bound is quantified by a biotinylated anti-uPAR antibody and avidin-HRP and can be fit to a competitive binding model allowing for determination of the uPAR/test compound Kd.
All derivatives were assessed for their ability to hind selectively to recombinant uPAR in vitro using a competitive ELISA binding assay. DMSO stock solutions of each derivative stored at −20° C. were titrated into wells pre-coated with human urokinase (isolated from human urine, ProSpec 1 mg/mL deionized water 18.5 μM) in the presence of uPAR. Selective binding to uPAR by compounds at the uPA binding site competes with uPAR-uPA binding which is required for a positive UV 450 nm absorbance signal. Increasing concentrations of test compound displace increasing amounts of uPAR from uPA which is detected by anti-uPAR/biotin labeled antibodies followed by avidin-HRP.
ELISA assay substantially as described above was used to test certain of the compounds of the present invention for biological characteristics. In addition, the compound 6-ABT-1 as described in WO2017/023994 was tested as a control.
(An ELISA detects its analyte on a solid surface through an enzyme-linked reagent.)

The values below come from patent US10780084B2, “Antibody-recruiting molecules for the treatment of cancer” (YALE UNIVERSITY, priority 2016, dated 2020).

The structures appear in SMILES notation.

T1 sequence (Q03405 23-305): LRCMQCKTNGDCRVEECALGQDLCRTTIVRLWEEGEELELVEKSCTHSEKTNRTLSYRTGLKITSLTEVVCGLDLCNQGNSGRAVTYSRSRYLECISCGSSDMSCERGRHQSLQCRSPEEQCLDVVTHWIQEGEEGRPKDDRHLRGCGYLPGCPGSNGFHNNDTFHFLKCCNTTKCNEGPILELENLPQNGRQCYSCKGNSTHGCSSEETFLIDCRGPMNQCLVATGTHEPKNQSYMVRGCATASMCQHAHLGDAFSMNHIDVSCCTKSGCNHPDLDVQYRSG

As usually defined, the IC50 is the concentration at which inhibition is half-maximal. For orientation: Ki means a measure of affinity in units of concentration, obtained from inhibition or displacement. Consider `O=C1c2ccccc2-c2onc3c(N4CCC(C(=O)NCCCOCCOCCOCCCNc5ccc([N+](=O)[O-])cc5[N+](=O)[O-])CC4)cc(Nc4ccc(S(=O)(=O)O)cc4S(=O)(=O)O)c1c23` [ARM-U2 derivative 6-ABT-5], for which the IC50 was 544 nM, the inhibition constant Ki was found to be 11 nM and the “Ratio of IC50 (Compound)/IC50 6-ABT-1” value is 0.7.

On to `O=C1c2ccccc2-c2onc3c(N4CCC(C(=O)NCCCOCCOCCOCCCNc5ccc([N+](=O)[O-])cc5[N+](=O)[O-])CC4)cc(Nc4ccc(S(=O)(=O)O)cc4)c1c23` [ARM-U2 derivative 7-ABT-5], for which the IC50 is 2360 nM, the Ki came to 48.4 nM and the “Ratio of IC50 (Compound)/IC50 6-ABT-1” value came to 1.15.

`COc1ccc(Nc2cc(N3CCC(C(=O)NCCCOCCOCCOCCCNc4ccc([N+](=O)[O-])cc4[N+](=O)[O-])CC3)c3noc4c3c2C(=O)c2ccccc2-4)c(S(=O)(=O)O)c1` [ARM-U2 derivative 8-ABT-5]: the IC50 is 540 nM, the Ki came out at 11 nM and the “Ratio of IC50 (Compound)/IC50 6-ABT-1” value came out at 0.28.

Regarding `O=C1c2ccccc2-c2onc3c(N4CCC(C(=O)NCCCOCCOCCOCCCNc5ccc([N+](=O)[O-])cc5[N+](=O)[O-])CC4)cc(Nc4ccc(Cl)cc4S(=O)(=O)O)c1c23` [ARM-U2 derivative 9-ABT-5], the IC50 was determined as 485 nM, the Ki was found to be 9.84 nM and the “Ratio of IC50 (Compound)/IC50 6-ABT-1” value is listed as 0.255.

In the case of `COC(=O)c1ccc(Nc2cc(N3CCC(C(=O)NCCCOCCOCCOCCCNc4ccc([N+](=O)[O-])cc4[N+](=O)[O-])CC3)c3noc4c3c2C(=O)c2ccccc2-4)cc1` [ARM-U2 derivative 10-ABT-5], the IC50 is > 100000 nM, the Ki is > 2000 nM and the “Ratio of IC50 (Compound)/IC50 6-ABT-1” value is recorded as 71.4.

As for `COC(=O)c1ccc(Nc2cc(N3CCC(C(=O)NCCCOCCOCCOCCCNc4ccc([N+](=O)[O-])cc4[N+](=O)[O-])CC3)c3noc4c3c2C(=O)c2ccccc2-4)c(C(=O)OC)c1` [ARM-U2 derivative 11-ABT-5], the IC50 was > 100000 nM, the Ki is > 2000 nM and the “Ratio of IC50 (Compound)/IC50 6-ABT-1” value is reported as >56.

On to `COC(=O)c1ccc(Nc2cc(N3CCC(C(=O)NCCCOCCOCCOCCCNc4ccc([N+](=O)[O-])cc4[N+](=O)[O-])CC3)c3noc4c3c2C(=O)c2ccccc2-4)c(Cl)c1` [ARM-U2 derivative 12-ABT-5], for which the IC50 is > 100000 nM, the Ki was > 2000 nM and the “Ratio of IC50 (Compound)/IC50 6-ABT-1” value is 71.4.

On to `COC(=O)c1cc(Nc2cc(N3CCC(C(=O)NCCCOCCOCCOCCCNc4ccc([N+](=O)[O-])cc4[N+](=O)[O-])CC3)c3noc4c3c2C(=O)c2ccccc2-4)nn1C` [ARM-U2 derivative 13-ABT-5], for which the IC50 is > 100000 nM, the Ki was > 2000 nM and the “Ratio of IC50 (Compound)/IC50 6-ABT-1” value was found to be 71.4.

For the compound `NS(=O)(=O)c1ccc(Nc2cc(N3CCC(C(=O)NCCCOCCOCCOCCCNc4ccc([N+](=O)[O-])cc4[N+](=O)[O-])CC3)c3noc4c3c2C(=O)c2ccccc2-4)cc1` [ARM-U2 derivative 14-ABT-5], the IC50 was > 100000 nM, the Ki is > 2000 nM and the “Ratio of IC50 (Compound)/IC50 6-ABT-1” value is 71.4.

As for `O=C1c2ccccc2-c2onc3c(N4CCC(C(=O)NCCCOCCOCCOCCCNc5ccc([N+](=O)[O-])cc5[N+](=O)[O-])CC4)cc(Nc4cc(C5CC5)no4)c1c23` [ARM-U2 derivative 15-ABT-5], the IC50 was found to be 18000 nM, the Ki is 371 nM and the “Ratio of IC50 (Compound)/IC50 6-ABT-1” value is reported as 12.85.

`CCOC(=O)c1cn(C)nc1Nc1cc(N2CCC(C(=O)NCCCOCCOCCOCCCNc3ccc([N+](=O)[O-])cc3[N+](=O)[O-])CC2)c2noc3c2c1C(=O)c1ccccc1-3` [ARM-U2 derivative 16-ABT-5]: the IC50 is 55200 nM, the Ki stood at 1140 nM and the “Ratio of IC50 (Compound)/IC50 6-ABT-1” value is 39.41.

For the compound `COC(=O)c1cc(OC)ccc1Nc1cc(N2CCC(C(=O)NCCCOCCOCCOCCCNc3ccc([N+](=O)[O-])cc3[N+](=O)[O-])CC2)c2noc3c2c1C(=O)c1ccccc1-3` [ARM-U2 derivative 17-ABT-5], the IC50 was > 100000 nM, the Ki was > 2000 nM and the “Ratio of IC50 (Compound)/IC50 6-ABT-1” value is >31.

On to `O=C(O)c1cc(Cl)ccc1Nc1cc(N2CCC(C(=O)NCCCOCCOCCOCCCNc3ccc([N+](=O)[O-])cc3[N+](=O)[O-])CC2)c2noc3c2c1C(=O)c1ccccc1-3` [ARM-U2 derivative 18-ABT-5], for which the IC50 was 3090 nM, the Ki amounted to 63.5 nM and the “Ratio of IC50 (Compound)/IC50 6-ABT-1” value is reported as 0.98.

Turning to `O=C1c2ccccc2-c2onc3c(N4CCC(C(=O)NCCCOCCOCCOCCCNc5ccc([N+](=O)[O-])cc5[N+](=O)[O-])CC4)cc(Nc4cc(S(=O)(=O)O)ccc4S(=O)(=O)O)c1c23` [ARM-U2 derivative 19-ABT-5], the concentration for half-maximal inhibition (IC50) was 2570 nM, the Ki was 52.7 nM and the “Ratio of IC50 (Compound)/IC50 6-ABT-1” value is given as 0.81.
